{"source": "patent US20100094407A1", "about": "“Multiple Bioactive Agent Eluting Stents” (Medtronic Vascular, Inc., priority 2008, published 2010)", "experiment": "Elution of fluocinolone and zotarolimus from coated stents, Example 1", "type": "physicochemical", "details": "60 μg zotarolimus with or without 80 μg fluocinolone; FIG. 4", "excerpt": "In one embodiment, the present disclosure relates to a multiple bioactive agent eluting stent comprising a stent framework, at least two bioactive agents on the stent framework, wherein one or more of the at least two bioactive agents affects the elution rate of one or more of the other of the at least two bioactive agents. The elution rate or profile of the bioactive agents can be determined utilizing the methods showing in Examples 1 and 2 below. For example, total cumulative release of applied bioactive agents can be measured to determine total daily release and also release over a period of time greater than one day. The at least two bioactive agents may be applied together onto a stent framework. There may be one coating which contains all of the bioactive agents. Alternatively, the bioactive agents can be applied to the stent framework in separate coatings. Each coating may contain just one bioactive agent or more than one bioactive agent. The coatings may constitute separate layers. There can also be a base layer and cap layer on the stent framework. Base layer is located closest to the stent framework and the cap layer is a layer which is located furthest away from the stent framework. The layers can be uniform or non-uniform, meaning the layers can be in the form of, for example, dots or stripes or other non-uniform patterns.\n12 mm parylene coated stents were used for all builds. […]"}
{"smiles": "CO[C@H]1C[C@@H]2CC[C@@H](C)[C@@](O)(O2)C(=O)C(=O)N2CCCC[C@H]2C(=O)O[C@H]([C@H](C)C[C@@H]2CC[C@H](n3cnnn3)[C@H](OC)C2)CC(=O)[C@H](C)/C=C(\\C)[C@@H](O)[C@@H](OC)C(=O)[C@H](C)C[C@H](C)/C=C/C=C/C=C/1C", "note": "[zotarolimus]", "values": [{"measurement": "zotarolimus elution rate / total cumulative release, combination with fluocinolone vs zotarolimus alone", "value": "increased"}]}
